# Measured values reported in PubChem BioAssay (NCI).
#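 The compound was tested at five concentrations on cells cultured in 96-well plates, with a 48-hour exposure period. GI50 marks 50% less growth. TGI denotes the concentration required for complete inhibition of growth.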
# How the values were obtained:
# Assay in all cases: NCI tumour cell line growth inhibition, 48 h
# OVCAR-8 ovarian = test system: OVCAR-8 ovarian
# HCT-15 colon = test system: HCT-15 colon
# SNB-19 CNS = test system: SNB-19 CNS
# HCC-2998 colon = test system: HCC-2998 colon
# T-47D breast = test system: T-47D breast
# MDA-MB-231 breast = test system: MDA-MB-231 breast
# U251 CNS = test system: U251 CNS
# UACC-257 melanoma = test system: UACC-257 melanoma
# M14 melanoma = test system: M14 melanoma
# RXF 393 renal = test system: RXF 393 renal
SMILES,GI50 (OVCAR-8 ovarian),TGI (OVCAR-8 ovarian),GI50 (HCT-15 colon),TGI (HCT-15 colon),GI50 (SNB-19 CNS),TGI (SNB-19 CNS),GI50 (HCC-2998 colon),TGI (HCC-2998 colon),GI50 (T-47D breast),TGI (T-47D breast),GI50 (MDA-MB-231 breast),TGI (MDA-MB-231 breast),GI50 (U251 CNS),TGI (U251 CNS),GI50 (UACC-257 melanoma),TGI (UACC-257 melanoma),TGI (M14 melanoma),TGI (RXF 393 renal),GI50 (M14 melanoma),GI50 (RXF 393 renal)
Oc1cccc2ccc(N/N=C/c3cc(CN4CCCCC4)c(O)c4ncccc34)nc12,0.0508 µM,2.06 µM,0.0339 µM,1.51 µM,0.0413 µM,18.7 µM,0.0499 µM,1.76 µM,0.192 µM,14.9 µM,0.0991 µM,2.03 µM,0.0329 µM,1.28 µM,0.256 µM,1.04 µM,–,–,–,–
COc1ccc(OC)c(NC(=O)C2=C(C)NC(C)=C(C(=O)Nc3cc(OC)ccc3OC)C2c2ccccc2)c1,–,> 100 µM,–,> 100 µM,–,> 100 µM,–,> 100 µM,–,–,–,–,–,> 100 µM,–,> 100 µM,> 100 µM,> 100 µM,–,–
CN(C)C(=O)OC(Cn1cncn1)c1ccc(Cl)cc1Cl (configuration not stated),–,> 100 µM,–,> 100 µM,–,> 100 µM,–,> 100 µM,–,–,–,–,–,> 100 µM,–,> 100 µM,> 100 µM,> 100 µM,–,–
NNC(=O)/C(=C/c1ccc(Cl)cc1Cl)NC(=O)c1ccccc1,–,> 100 µM,–,> 100 µM,–,> 100 µM,–,> 100 µM,–,–,–,–,–,> 100 µM,–,> 100 µM,> 100 µM,> 100 µM,–,–
Cc1ccc(C(=O)c2nnc(C(=O)c3ccc(C)cc3)nn2)cc1,–,> 100 µM,–,> 100 µM,–,> 100 µM,–,> 100 µM,–,–,–,–,–,> 100 µM,–,> 100 µM,56.3 µM,–,–,–
CC1(C)C(=NNC(=O)C[N+](C)(C)C)C(C)(C)C1=NNC(=O)C[N+](C)(C)C,–,> 100 µM,–,> 100 µM,–,> 100 µM,–,> 100 µM,–,–,–,–,–,> 100 µM,–,> 100 µM,> 100 µM,> 100 µM,–,–
C[C@@H]1C[C@H]2CC[C@H](O2)[C@H](C)C(=O)O[C@@H](C)C[C@@H]2CC[C@@H](O2)[C@@H](C)C(=O)O[C@H](C)C[C@H]2CC[C@H](O2)[C@H](C)C(=O)O[C@@H](C)C[C@@H]2CC[C@@H](O2)[C@@H](C)C(=O)O1,–,> 44.6 µM,–,> 100 µM,–,> 100 µM,–,> 27.8 µM,–,0.857 µM,–,–,–,> 100 µM,–,0.806 µM,> 85 µM,> 100 µM,–,–
Cc1c(C(=O)C/C(=N\O)C(=O)Nc2cc(Cl)c(Cl)cc2Cl)[n+](=O)c2ccccc2n1[O-],–,40.7 µM,–,23.5 µM,–,> 100 µM,–,23.5 µM,–,–,–,–,–,31.3 µM,–,20.2 µM,15.9 µM,68.8 µM,–,–
COc1ccc(-c2ccc(/C=N/n3c(COc4ccc(Cl)cc4Cl)nn(CN4CCOCC4)c3=S)o2)c([N+](=O)[O-])c1,–,–,26.9 µM,> 100 µM,28.7 µM,> 100 µM,22.7 µM,60.2 µM,38.6 µM,> 100 µM,–,–,–,–,–,–,72.6 µM,88.9 µM,26 µM,24.3 µM
O=C(CN1CCOCC1)Nc1nc(-c2ccc(Cl)cc2)cs1,–,72.2 µM,–,> 100 µM,–,> 100 µM,–,> 100 µM,–,–,–,–,–,> 100 µM,–,–,> 100 µM,–,–,–
N#Cc1c(N2CCCC2)[nH]c(=O)c(C(c2c(Cl)cccc2Cl)c2c(O)c(C#N)c(N3CCCC3)[nH]c2=O)c1O,15.8 µM,33.1 µM,7.7 µM,26.9 µM,4.24 µM,18.2 µM,12.1 µM,25.7 µM,3.13 µM,13.4 µM,–,–,13.4 µM,95.1 µM,12.4 µM,26.7 µM,24 µM,15.4 µM,11.4 µM,2.69 µM
CSc1ccc(C2OC(=O)c3ccccc32)c2ccccc12 (configuration not stated),–,> 100 µM,–,> 100 µM,–,> 100 µM,–,> 100 µM,–,–,–,–,–,> 100 µM,–,> 100 µM,> 100 µM,> 100 µM,–,–
C/C(=N\NS(=O)(=O)c1ccccc1)c1ccc(Cl)c(Cl)c1,–,> 100 µM,–,> 100 µM,–,–,–,> 100 µM,–,–,–,–,–,> 100 µM,–,> 100 µM,> 100 µM,> 100 µM,–,–
CCCCCCCCCCCC(=O)OCC1OC(n2cc(F)c(=O)[nH]c2=O)C(NC(=O)OCc2ccccc2)C(OC(=O)CCCCCCCCCCC)C1O (configuration not stated),–,> 100 µM,–,> 100 µM,–,> 100 µM,–,> 100 µM,–,–,–,–,–,> 100 µM,–,> 100 µM,> 100 µM,> 100 µM,–,–
Cn1cc(-c2ccc3occ(-c4cccc(-c5ccncc5)c4)c3n2)cn1,1.31 µM,> 100 µM,0.285 µM,> 100 µM,1.21 µM,> 100 µM,1.74 µM,> 100 µM,–,–,1.62 µM,> 100 µM,0.601 µM,> 100 µM,2.6 µM,> 100 µM,> 100 µM,4.44 µM,0.457 µM,0.661 µM
NC1C[C@H](n2cc(/C=C/Br)c(=O)[nH]c2=O)C[C@@H]1CO (some centres not stated),–,> 100 µM,–,> 100 µM,–,> 100 µM,–,> 100 µM,–,–,–,–,–,> 100 µM,–,> 100 µM,> 100 µM,> 100 µM,–,–
Nc1ccn(CCNCCn2cnc3nc(N)[nH]c(=O)c32)c(=O)n1,–,> 100 µM,–,> 100 µM,–,> 100 µM,–,> 100 µM,–,–,–,–,–,> 100 µM,–,> 100 µM,–,> 100 µM,–,–
CCN(CC)c1ccc(C(=O)c2ccccc2C(=O)O)c(O)c1,–,> 100 µM,–,> 100 µM,–,> 100 µM,–,–,–,–,–,–,–,> 100 µM,–,> 100 µM,> 100 µM,> 100 µM,–,–
COc1ccc2nc(-c3cccs3)cc(C(O)CN3CCSCC3)c2c1 (configuration not stated),–,57.8 µM,–,57.8 µM,–,> 100 µM,–,58.9 µM,–,–,–,–,–,50.2 µM,–,63.7 µM,40.6 µM,> 100 µM,–,–
COC(=O)C(=O)C1(CCC(C)=O)c2ccccc2-c2c(C)ccc(C)c21 (configuration not stated),–,> 100 µM,–,> 100 µM,–,> 100 µM,–,> 100 µM,–,–,–,–,–,> 100 µM,–,91.8 µM,> 100 µM,76.1 µM,–,–
CC1SC2=NC3=C(c4ccccc4C3=O)C(c3ccc(F)cc3)N2C1=O (configuration not stated),–,> 100 µM,–,> 100 µM,–,> 100 µM,–,> 100 µM,–,–,–,–,–,> 100 µM,–,> 100 µM,> 100 µM,–,–,–
O=C(N/C(=C\c1ccc2c(c1)OCO2)c1nc2ccccc2[nH]1)c1ccccc1,–,> 100 µM,–,> 100 µM,–,> 100 µM,–,> 87.3 µM,–,–,–,–,–,> 100 µM,–,35.8 µM,> 90.9 µM,81.5 µM,–,–
